In publication PMC7024310, “Pyrenosetins A–C, New Decalinoylspirotetramic Acid Derivatives Isolated by Bioactivity-Based Molecular Networking from the Seaweed-Derived Fungus Pyrenochaetopsis sp. FVE-001” (Marine Drugs, 2020):

Tests used:
[1] = system: human malignant melanoma cell line A-375; experiment: CellTiterBlue cell viability assay, malignant melanoma cell line A-375; type: cell-based; settings: for IC50: Homo sapiens, A-375 cells, 24 h treatment, CellTiterBlue, read-out: IC50 against A-375 cells
Description: (§1) The crude extracts were initially tested in vitro against 5 human cancer cell lines: colorectal adenocarcinoma cell line HT-29 (DSMZ, Braunschweig, Germany), malignant melanoma cell line A-375 (CLS, Eppelheim, Germany), colon cancer cell line HCT-116 (DSMZ), lung carcinoma cell line A-549 (CLS, Eppelheim, Germany), human breast cancer line MB-231 (CLS), and the non-cancerous human keratinocyte line HaCaT (CLS) at a concentration of 100 µg/mL. The antitumoral activity of the crude extracts was evaluated by monitoring the metabolic activity using the CellTiterBlue Cell Viability Assay (Promega, Mannheim, Germany). HT-29 and HaCaT cells were cultivated in RPMI medium, A-549 and MB-231 cells in DMEM: Ham’s F12 medium (1:1) supplemented with 15 mM HEPES and A-375 and HCT-116 cells in DMEM medium supplemented with 4.5 g/L D-Glucose and 110 mg/L sodium pyruvate. All media were supplemented with L-Glutamine, 10% fetal bovine serum, 100 U/mL penicillin, and […] streptomycin. The cultures were maintained at 37 °C under a humidified atmosphere and 5% CO2. The cell lines were transferred every 3 or 4 days. For experimental procedure, the cells were seeded in 96 well plates at a concentration of 10,000 cells per well. A stock solution of 40 mg/mL in DMSO was prepared of each extract. After 24 h incubation, the medium was removed from the cells and 100 µL fresh medium containing the test samples was added. Each sample was prepared in duplicate once. Doxorubicin as a standard therapeutic drug was used as positive control, 0.5% DMSO and growth media were used as controls. Following compound addition, plates were cultured at 37 °C for 24 h. Afterwards, the assay was performed according to the manufacturer’s instructions and measured using the microplate reader Tecan Infinite M200 at excitation 560 nm and emission of 590 nm. For determination of IC50 values, a dilution series of the extracts was prepared and tested, as described before for the crude extract.

[2] = system: non-cancerous human keratinocyte cell line HaCaT; experiment: CellTiterBlue cell viability assay, non-cancerous keratinocyte line HaCaT (general toxicity); type: cell-based; settings: HaCaT cells, 24 h treatment, read-out: IC50 against HaCaT cells
Description: as §1

[3] = system: Plasmodium falciparum 3D7; set-up: method as in PMID 28901329; settings: cited from earlier work
cancer cell lines = system: cancer cell lines; set-up: method as in PMID 28901329; settings: cited from earlier work

Compound | IC50 [1] [µM] | IC50 [2] [µM] | selectivity index (IC50 value against HaCaT cells / IC50 value against A-375 cells) ([1]; HaCaT vs A-375) | antimalarial activity [3] | activity against cancer cell lines (cancer cell lines)
CC1=CC2CC(C)CCC2C2(C)C(=O)C3(C(=O)C(CO)N(C)C3=O)C(C=CC(C)O)C12 (stereo not drawn) [Compound 1, Pyrenosetin A] | 2.8 | 4.2 | – | – | –
CC1=C[C@H]2C[C@@H](C)CC[C@@H]2[C@@]2(C)C(=O)[C@@]3(C(=O)[C@@H](CO)N(C)C3=O)[C@H](/C=C/[C@@H](C)O)[C@@H]12 [Compound 2, Pyrenosetin B] | 6.3 | 35 | around 5.6 | – | –
CC(=O)/C=C/[C@@H]1[C@H]2C(C)=C[C@H]3C[C@@H](C)CC[C@@H]3[C@@]2(C)C(=O)[C@@]12C(=O)[C@@H](CO)N(C)C2=O [Compound 3, Pyrenosetin C] | 140 | 143 | – | – | –
C/C=C/C=C/[C@H]1C(C)=C[C@H]2C[C@@H](C)CC[C@@H]2[C@@]1(C)/C(O)=C1/C(=O)[C@@H](CO)N(C)C1=O [Compound 4, Phomasetin] | 37.3 | 45 | – | – | –
COc1cccc2c1C(=O)c1c(O)c3c(c(O)c1C2=O)C[C@@](O)(C(=O)CO)C[C@@H]3O[C@H]1C[C@H](N)[C@H](O)[C@H](C)O1 [Doxorubicin, reference compound] | 0.6 | 22.1 | – | – | –
CC(=O)/C=C/[C@H]1[C@H](C(=O)N(C)[C@H](CO)C(=O)O)C(=O)[C@@]2(C)[C@@H]1C(C)=C[C@H]1C[C@@H](C)CC[C@@H]12 [wakodecaline B] | – | – | – | moderate antimalarial activity | inactive
wakodecaline A | – | – | – | moderate antimalarial activity | inactive
